# Reference: patent US20260199479A1, “DRUG LINKER AND LINKER-CONJUGATED COMPOUND” (Anti-Microbial Savior BioteQ Co., Ltd., priority 2022, published 2026)
# Experiments:
# [1] = Water solubility test (HPLC); assay type: physicochemical; details: double distilled water, thermodynamic from solid
# Procedure: 5 mg of the standard test compound was weighed and dissolved in 5 mL of IPA as a stock solution (1 mg/mL). Double distilled water was then diluted to prepare 1000, 100, 50, 25, 12.5, 10, 5, 2.5, 1.25, 1, 0.5, 0.25, 0.125 μg/mL standard solution calibration lines. 60 μL of each concentration standard solution was used for HPLC analysis. Peak areas were integrated to establish a calibration line, and the accuracy of the analysis method was evaluated through the correlation coefficient (R-squared).
# 1 mL of double distilled water was weighed into a microcentrifuge tube and the test compound was dissolved. Undissolved compounds were ensured to be still present by vortexing for 5 min and sonicating for 20 min. After centrifugation, the supernatant was filtered through a 0.22 μm PTEF membrane. The […] was analyzed by HPLC and the water solubility was calculated from the peak area.
# NOZ cells = experiment: Cytotoxicity screening, PrestoBlue cell viability; assay type: cell-based, human; details: gallbladder cancer cells
# Procedure: (§1) NOZ cells, human gallbladder cancer cells, were obtained from the Japanese Collection of Research Bioresources Cell Bank (JCRB, Japan). Cells were cultured in 90% William's E culture medium (Gibco, USA), 10% fetal bovine serum (FBS) (Gibco, USA), and 1% antibiotics (1×penicillin, streptomycin and glutamine) (Gibco, USA).
# (§2) Cell viability was assessed with PrestoBlue assay (Invitrogen, USA). Cells were seeded into 96-well plates and cultured with test compounds according to the manufacturer's protocol. After 48 hours of exposure to test compounds, the culture medium was discarded and rinsed with PBS. Then, add 10 μL PrestoBlue reagent containing 90 μL culture medium to the cells and incubate the cell plate at 37° C. in the dark for 120 min. Absorbance was measured at the experimental wavelength of 570 nm and the normalized wavelength of 600 nm in a SpectraMax iD3 microplate reader. […] Cell viability was expressed as a percentage relative to the control, and calculated using the following formula: cell viability (%)=[(Absorbance of test wells at 570 nm−Absorbance of only culture medium wells at 570 nm−Absorbance of test wells at 600 nm+Absorbance of only culture medium wells at 600 nm)/Absorbance of the control well at 570 nm−Absorbance of only culture medium wells at 570 nm-Absorbance of the control well at 600 nm+Absorbance nm of only culture medium wells at 600 nm)]×100.
# HuCCT1 cells = experiment: Cytotoxicity screening, PrestoBlue cell viability; assay type: cell-based, human; details: HuCCT1, 20 μg/mL
# Procedure: HuCCT1 cells, human cholangiocarcinoma cells, were obtained from iCell Bioscience Inc. (iCell, China). Cells were cultured in 90% RPMI 1640 culture medium (Gibco, USA), 10% fetal bovine serum (FBS) (Gibco, USA), and 1% antibiotics (1×penicillin, streptomycin and glutamine) (Gibco, USA).
# as §2
# HuH28 cells = experiment: Cytotoxicity screening, PrestoBlue cell viability; assay type: cell-based, human; details: HuH28, 20 μg/mL
# Procedure: as §1, with “HuH28” for “NOZ”, “liver, and cholangiocarcinoma” for “gallbladder cancer”, “RPMI 1640” for “William's E”
# as §2
# PANC-1 = experiment: Cytotoxicity screening, PrestoBlue cell viability; assay type: cell-based, human; details: PANC-1, pancreatic cancer cells
# Procedure: PANC-1, human pancreatic epithelioid carcinoma, was obtained from the American Type Culture Collection (ATCC, USA). Cells were cultured in DMEM culture medium (Gibco, USA) containing 10% FBS (Gibco, USA) and 1% antibiotics (1×penicillin, streptomycin and glutamic acid) (Gibco, USA).
# (§3) Cell viability was assessed with PrestoBlue assay (Invitrogen, USA). Cells were seeded into 96-well plates and cultured with test compounds according to the manufacturer's protocol. After 48 hours of exposure to test compounds, the culture medium was discarded and rinsed with PBS. Then, add 10 μL PrestoBlue reagent containing 90 μL culture medium to the cells and incubate the cell plate at 37° C. in the dark for 120 min. Absorbance was measured at the experimental wavelength of 570 nm and the normalized wavelength of 600 nm in a SpectraMax iD3 microplate reader. The result was corrected by subtracting the blank value. Cell viability was expressed as a percentage relative to the control, and calculated using the following formula: cell viability (%)=[(Absorbance of test wells at 570 nm−Absorbance of only culture medium wells at 570 nm−Absorbance of test wells at 600 nm+Absorbance of only culture medium wells at 600 nm)/Absorbance of the control well at 570 nm−Absorbance of only culture medium wells at 570 nm-Absorbance of the control well at 600 nm+Absorbance nm of only culture medium wells at 600 nm)]×100.
# BxPC-3 = experiment: Cytotoxicity screening, PrestoBlue cell viability; assay type: cell-based, human; details: BxPC-3, pancreatic cancer cells
# Procedure: (§4) BxPC-3, human pancreatic adenocarcinoma cells, were obtained from the Bioresource Collection and Research Center (BCRC, Taiwan, China). Cells were cultured in RPMI 1640 culture medium (Gibco, USA) containing 10% FBS (Gibco, USA) and 1% antibiotics (1×penicillin, streptomycin and glutamic acid) (Gibco, USA).
# as §2
# AsPC-1 = experiment: Cytotoxicity screening, PrestoBlue cell viability; assay type: cell-based, human; details: AsPC-1, pancreatic cancer cells
# Procedure: as §4, with “AsPC-1,” for “BxPC-3,”, “adenocarcinoma ascites metastatic” for “adenocarcinoma”
# as §2
# Caco-2 = experiment: Cytotoxicity screening, PrestoBlue cell viability; assay type: cell-based; details: Caco-2, colon cancer cells
# Procedure: Caco-2, colorectal adenocarcinoma, was obtained from the Bioresource Collection and Research Center ([…]). Cells were cultured in minimal essential Eagle's culture medium (FBS) (Gibco, USA) containing 2 mM L-glutamic acid, 1.5 mg/mL sodium bicarbonate, 0.1 mM non-essential amino acids, 1.0 mM sodium pyruvate (Gibco, USA), 20% fetal bovine serum (Gibco, USA), and 1% antibiotics (1×penicillin, streptomycin and glutamic acid) (Gibco, USA).
# as §2, with “Then, add 10 μL PrestoBlue reagent containing 90 μL culture medium to the cells and incubate the cell plate at 37° C. in the dark for 120 min.” left out
# HCT-15 = experiment: Cytotoxicity screening, PrestoBlue cell viability; assay type: cell-based; details: HCT-15, colon cancer cells
# Procedure: as §4, with “HCT-15, colorectal adenocarcinoma, was” for “BxPC-3, human pancreatic adenocarcinoma cells, were”, “fetal bovine serum (FBS)” for “FBS”
# as §2
# MCF-7 = experiment: Cytotoxicity screening, PrestoBlue cell viability; assay type: cell-based, human; details: MCF-7, breast cancer cells
# Procedure: MCF7, human breast cancer, was obtained from the Bioresource Collection and Research Center (BCRC, Taiwan, China). Cells were cultured in minimal essential Eagle's culture medium (FBS) (Gibco, USA) containing 2 mM L-glutamic acid, 1.5 mg/mL sodium bicarbonate, 0.1 mM non-essential amino acids, 1.0 mM sodium pyruvate (Gibco, USA), 10% fetal bovine serum (Gibco, USA) and 1% antibiotics (1×penicillin, streptomycin and glutamic acid) (Gibco, USA).
# as §2, with “Then, add 10 μL PrestoBlue reagent containing 90 μL culture medium to the cells and incubate the cell plate at 37° C. in the dark for 120 min.” left out
# A549 = experiment: Cytotoxicity screening, PrestoBlue cell viability; assay type: cell-based, human; details: A549, lung cancer cells
# Procedure: as §4, with “A549,” for “BxPC-3,”, “non-small cell lung cancer” for “pancreatic adenocarcinoma”, “F12K” for “RPMI 1640”
# as §2
# AML12 cells = experiment: Cytotoxicity screening, PrestoBlue cell viability; assay type: cell-based, mouse; details: AML12, normal hepatocytes
# Procedure: AML12 cells, alpha mouse liver 12, were obtained from the American Type Culture Collection (ATCC, USA). Cells were cultured in DMEM: F12 culture medium (Gibco, USA), 10% fetal bovine serum (FBS) (Gibco, USA), 10 μg/mL insulin, 5.5 μg/mL transferrin, 5 ng/ml selenium, 40 ng/ml dexamethasone (Gibco, USA), and 1% antibiotics (1×penicillin, streptomycin and glutamic acid) (Gibco, USA).
# as §2, with “Then, add 10 μL PrestoBlue reagent containing 90 μL culture medium to the cells and incubate the cell plate at 37° C. in the dark for 120 min.” left out
# Vero E6 cells = experiment: Cytotoxicity screening, PrestoBlue cell viability; assay type: cell-based, cercopithecus aethiops; details: Vero E6, normal kidney cells
# Procedure: Vero E6 cells, cercopithecus aethiops renal epithelial cells, were obtained from the American Type Culture Collection (ATCC, USA). Cells were cultured in Dulbecco's Modified Eagle Medium (DMEM) (Gibco, USA) containing 10% FBS (Gibco, USA), 100 U/mL penicillin, and 100 μg/mL streptomycin (Gibco, USA). Cell viability was assessed with PrestoBlue assay (Invitrogen, USA). Cells were seeded into 96-well plates and cultured with test compounds according to the manufacturer's protocol. After 48 hours of exposure to test compounds, the culture medium was discarded and rinsed with PBS. Then, add 10 μL PrestoBlue reagent containing 90 μL culture medium to the cells and incubate the cell plate at 37° C. in the dark for 120 min. Absorbance was measured at the experimental wavelength of 570 nm and the normalized wavelength of 600 nm in a SpectraMax iD3 microplate reader. […] Cell viability was expressed as a percentage relative to the control, and calculated using the following formula: cell viability (%)=[(Absorbance of test wells at 570 nm−Absorbance of only culture medium wells at 570 nm−Absorbance of test wells at 600 nm+Absorbance of only culture medium wells at 600 nm)/Absorbance of the control well at 570 nm−Absorbance of only culture medium wells at 570 nm-Absorbance of the control well at 600 nm+Absorbance nm of only culture medium wells at 600 nm)]×100.
# [2] = test system: normal cells or cancer cells; experiment: Cytotoxicity tests in various cell lines (summary); assay type: cell-based; details: normal cells and cancer cells, various cell lines (Table 3)
# Procedure: as §3
# Taking the linker of the present invention (n=2; X, Y, Z=O; R^1, R^2, R^4=H; R^3=CH3) as an example, the linker has significant advantages in terms of synthetic elastic properties. […]
Compound,solubility [1] [µg/mL],20 μg/mL 48-hour survival rate (NOZ cells) [%],20 μg/mL 48-hour survival rate (HuCCT1 cells) [%],20 μg/mL 48-hour survival rate (HuH28 cells) [%],20 μg/mL 48-hour survival rate (PANC-1) [%],20 μg/mL 48-hour survival rate (BxPC-3) [%],20 μg/mL 48-hour survival rate (AsPC-1) [%],20 μg/mL 48-hour survival rate (Caco-2) [%],20 μg/mL 48-hour survival rate (HCT-15) [%],20 μg/mL 48-hour survival rate (MCF-7) [%],20 μg/mL 48-hour survival rate (A549) [%],20 μg/mL 48-hour survival rate (AML12 cells) [%],20 μg/mL 48-hour survival rate (Vero E6 cells) [%],cytotoxicity [2]
"C/C(=C\CO)CC/C=C(\C)CCC(O)C(C)C(=O)O (stereo not drawn) [Linker of the present invention, (6E,10E)-3,12-dihydroxy-2,6,10-trimethyldodec-6,10-dienoic acid]",780,107.26 ± 14.11,110.04 ± 0.17,87.92 ± 5.14,106.67 ± 8.24,91.33 ± 5.93,93.02 ± 5.01,99.94 ± 3.16,88.96 ± 15.45,89.45 ± 8.95,82.28 ± 5.53,91.99 ± 2.6,96.28 ± 3.66,not cytotoxic
"CC(C)=CCC/C(C)=C/CC/C(C)=C/CO [Farnesol, reference compound]",87.4,–,–,–,–,–,–,–,–,–,–,–,–,–
